According to the NIST ThermoML archive (doi:10.1021/je060271a):
“And” between values parts separate entries of the source, which are not always exact repeats. Equal entries are not always repeated.

Conditions: 323.15 K, Liquid, Vibrating tube method

CCCCCC(=O)OCC(COC(=O)CCCCC)(COC(=O)CCCCC)COC(=O)CCCCC [pentaerythritol tetrahexanoate]
Conditions | mass density
4356.6 kPa | 975.7 kg/m3
4377.1 kPa | 975.8 kg/m3
4397.7 kPa | 975.8 kg/m3
4414.6 kPa | 975.8 kg/m3
4431.8 kPa | 975.7 kg/m3
4453.1 kPa | 975.7 kg/m3
4474 kPa | 975.7 kg/m3
4491.8 kPa | 975.8 kg/m3
4509.3 kPa | 975.7 kg/m3
6215.6 kPa | 977 kg/m3
6237.7 kPa | 977 kg/m3
6256.2 kPa | 977.1 kg/m3
6278.3 kPa | 977.1 kg/m3
6297 kPa | 977 kg/m3
6319.4 kPa | 977.2 kg/m3
6338.8 kPa | 977.1 kg/m3
6508.8 kPa | 977.2 kg/m3
6532.7 kPa | 977.2 kg/m3
6552.5 kPa | 977.2 kg/m3
7405.8 kPa | 977.7 kg/m3
7431 kPa | 977.8 kg/m3
7486 kPa | 977.8 kg/m3
7516.4 kPa | 978 kg/m3
7547.5 kPa | 977.8 kg/m3
7600 kPa | 978 kg/m3
7657.3 kPa | 978 kg/m3
7688 kPa | 978 kg/m3
7711.5 kPa | 978.1 kg/m3
7734.2 kPa | 978.1 kg/m3
7761.5 kPa | 978 kg/m3
7886.8 kPa | 978.1 kg/m3
7915.3 kPa | 978.1 kg/m3
7938.6 kPa | 978.2 kg/m3
7966.7 kPa | 978.2 kg/m3
7990.5 kPa | 978.2 kg/m3
8019.5 kPa | 978.3 kg/m3
8044.2 kPa | 978.3 kg/m3
8073.3 kPa | 978.1 kg/m3
8098.3 kPa | 978.3 kg/m3
8128.9 kPa | 978.3 kg/m3
8158.2 kPa | 978.5 kg/m3
8182.5 kPa | 978.3 kg/m3
8207.5 kPa | 978.3 kg/m3
9038.7 kPa | 978.9 kg/m3
9060.6 kPa | 979.1 kg/m3
9078.3 kPa | 978.9 kg/m3
9100 kPa | 978.9 kg/m3
9123 kPa | 978.9 kg/m3
9245.2 kPa | 979 kg/m3
9267 kPa | 979 kg/m3
9289.4 kPa | 979.1 kg/m3
9308.6 kPa | 979.1 kg/m3
9331.8 kPa | 979.1 kg/m3
9354.9 kPa | 979 kg/m3
9374.6 kPa | 979.1 kg/m3
9395.3 kPa | 979.1 kg/m3
9417.9 kPa | 979.2 kg/m3
9435.5 kPa | 979.1 kg/m3
9456.1 kPa | 979.2 kg/m3
9473 kPa | 979.2 kg/m3
9493.7 kPa | 979.2 kg/m3
9510.8 kPa | 979.3 kg/m3
9531.3 kPa | 979.2 kg/m3
9552.1 kPa | 979.3 kg/m3
9569.5 kPa | 979.3 kg/m3
9590.4 kPa | 979.3 kg/m3
9603.6 kPa | 979.4 kg/m3
9617.2 kPa | 979.3 kg/m3
9629.1 kPa | 979.4 kg/m3
9642.9 kPa | 979.3 kg/m3
9655.3 kPa | 979.4 kg/m3
9669.9 kPa | 979.3 kg/m3
9681.3 kPa | 979.5 kg/m3
9694.7 kPa | 979.3 kg/m3
9706.3 kPa | 979.4 kg/m3
9735.4 kPa | 979.4 kg/m3
9747.4 kPa | 979.4 kg/m3
9762.1 kPa | 979.4 kg/m3
9776.4 kPa | 979.4 kg/m3
9788.2 kPa | 979.5 kg/m3
9798.4 kPa | 979.4 kg/m3
9804.9 kPa | 979.4 kg/m3
9900.4 kPa | 979.4 kg/m3
9910.4 kPa | 979.4 kg/m3
9915.9 kPa | 979.4 kg/m3
9925.7 kPa | 979.6 kg/m3
9936.9 kPa | 979.5 kg/m3
9949.3 kPa | 979.5 kg/m3
9960.5 kPa | 979.5 kg/m3
9987.7 kPa | 979.6 kg/m3
9992.5 kPa | 979.5 kg/m3
10032 kPa | 979.7 kg/m3
10036 kPa | 979.6 kg/m3 and 979.7 kg/m3
10106 kPa | 979.7 kg/m3
10118 kPa | 979.7 kg/m3
10128 kPa | 979.6 kg/m3
10139 kPa | 979.6 kg/m3
10152 kPa | 979.6 kg/m3
10164 kPa | 979.7 kg/m3
10182 kPa | 979.6 kg/m3
10203 kPa | 979.7 kg/m3
10219 kPa | 979.8 kg/m3
10240 kPa | 979.8 kg/m3
10257 kPa | 979.7 kg/m3
10473 kPa | 979.9 kg/m3
10503 kPa | 979.9 kg/m3
10540 kPa | 980 kg/m3
10575 kPa | 979.9 kg/m3
10605 kPa | 980 kg/m3
10670 kPa | 980 kg/m3
10704 kPa | 980 kg/m3
10737 kPa | 980.1 kg/m3
10764 kPa | 980.1 kg/m3
10956 kPa | 980.2 kg/m3
10977 kPa | 980.2 kg/m3
11001 kPa | 980.3 kg/m3
11018 kPa | 980.2 kg/m3
11037 kPa | 980.2 kg/m3
11056 kPa | 980.3 kg/m3
11071 kPa | 980.4 kg/m3
11201 kPa | 980.4 kg/m3
11204 kPa | 980.4 kg/m3
11210 kPa | 980.4 kg/m3
11217 kPa | 980.4 kg/m3
11228 kPa | 980.4 kg/m3
11243 kPa | 980.4 kg/m3
11257 kPa | 980.3 kg/m3
11280 kPa | 980.5 kg/m3
11301 kPa | 980.4 kg/m3
11327 kPa | 980.5 kg/m3
11349 kPa | 980.5 kg/m3
11374 kPa | 980.6 kg/m3
11395 kPa | 980.6 kg/m3
11421 kPa | 980.6 kg/m3
11448 kPa | 980.5 kg/m3
11470 kPa | 980.5 kg/m3
11496 kPa | 980.6 kg/m3
11518 kPa | 980.6 kg/m3
11545 kPa | 980.6 kg/m3
11572 kPa | 980.5 kg/m3
11594 kPa | 980.5 kg/m3
11621 kPa | 980.6 kg/m3
11849 kPa | 980.8 kg/m3
11899 kPa | 980.9 kg/m3
11926 kPa | 980.8 kg/m3
